The source of these data is patent US20230201244A1, “COMPOSITIONS AND METHODS FOR PREVENTING AND/OR TREATING MICROBIAL INFECTIONS” (University of Louisville Research Foundation, Inc., priority 2020, published 2023).

SMILES strings stand for the structures.

For one assay, the system named is NF-κB (p65). It counts as in vivo, C57BL/6 mice. To be noted: inhibitor daily for three days at 5 mg/kg/d before intratracheal exosomes.
Assay [1] has as its system lung epithelial cells (EpCAM^+). Briefly: Lung apoptosis in mice given exosomes^Nsp12Nsp13 (TUNEL, Annexin V flow cytometry of EpCAM+ cells). It counts as in vivo, C57BL/6 mice. Particulars: inhibitor pretreatment.
For the next assay, the system named is TNFα, IL-1β and IL-6. Briefly: ELISA of inflammatory cytokines in lung or lung macrophages of mice given exosomes^Nsp12Nsp13. Particulars: lung macrophages, TNFα and IL-6 ELISA, i.p. pretreatment, FIG. 10B. It counts as in vivo, C57BL/6 mice.
The test system of assay [2] is lung epithelial A549 cells. Briefly: Apoptosis of A549 cells by flow cytometry (Annexin V/7-AAD). It counts as cell-based, human. On the technique in general: Flow cytometry measures light scatter and fluorescence of single cells or particles in a stream.

Consider `Cc1ccc(S(=O)(=O)/C=C/C#N)cc1` [Bay 11-7821], for which, in the assay on NF-κB (p65), the “lung macrophage NF-κB activity induced by exosomes^Nsp12Nsp13” value is “inhibited”. Moreover, the “induction of lung epithelial cell (EpCAM+) apoptosis” value in assay [1] (Annexin V flow cytometry, FIG. 5E) was “blocked”. Further, the “lung apoptosis induced by exosomes^Nsp12Nsp13 (TUNEL staining)” value in assay [1] (lung sections, FIG. 5D) is “reduced”. For the same compound, the “inflammatory cytokines induced by exosomes^Nsp12Nsp13” value with TNFα, IL-1β and IL-6 is listed as “attenuation of inflammatory cytokines”. The “A549 cell apoptosis on direct exposure” value in assay [2] (A549 cells presented to Nsp12/13, Bay 11-7821, FIG. 5F top panel) is given as “little influence”. For the same compound, in assay [2] (A549 cells, antibodies 10 ng/ml, FIG. 5F middle and bottom panel), the “apoptosis of lung epithelial cells induced by supernatant from U937 cells treated with exosomes^Nsp12Nsp13” value is recorded as “inhibited”.
